Where “and” joins values, the source holds several entries; their conditions need not be identical. Identical values can stand only once. Entries after “also recorded” stand apart in the source; their conditions may differ.

A short description of one series: in vivo. The following applies: rat, 1.4 mg/kg. The method, then: 113 was dissolved in 4% NaHCO3 in saline for IV administration. The detailed procedure of dosing solution preparation was presented in Appendix I.
15 animals were placed on the study. The animals in IV arm were free access to food and water. For PO dose group, the animals were fasted overnight prior to dosing and the food was resumed 4 hours postdose.
The IV injection was conducted via foot dorsal vein. PO via oral gavage.
Blood collection: The animal is restrained manually. Approximately 200 μL of blood/time point is collected into sodium heparin tube via cardiac puncture for terminal bleeding (anesthetized under carbon dioxide). Blood sample will be put on ice and centrifuged to obtain plasma sample (2000 g, 5 min under 4° C.) within 10 minutes.
Liver collection: The animal will be euthanized with carbon dioxide inhalation. Open abdominal cavity with scissor to expose internal organs. Hold the carcass in an upright position and allow the organs to fall forward. Cut the connective tissues and remove the organs. Then the organs are rinsed with cold saline, dried on filtrate paper, placed into a screw-top tube and weighed, snap frozen by placing into dry-ice immediately.
Brain collection: Make a mid-line incision in the animals scalp and retract the skin. Using small bone cutters and rongeurs, remove the skull overlying the brain. Remove the brain using a spatula and rinse with cold saline, dried on filtrate paper, placed into a screw-top tube and weighed, snap frozen by placing into dry-ice immediately. […] Plasma, brain and liver samples were stored at approximately −80° C. until analysis. The backup samples will be discarded after three weeks after in-life completion unless requested. The unused dosing solutions will be discarded within three weeks after completion of the study.
Pharmacokinetic Analysis Software: The PK parameters were determined by non-compartmental model of non-compartmental analysis tool, Pharsight Phoenix WinNonlin® 6.2 software. […] Concentration data within 80%-120% of LLOQ was considered within normal instrumental variation and presented in the results. Terminal t1/2 calculation: Time points were automatic selected by “best fit” model for terminal half life estimation as the first option. Manual selection was applied when “best fit” could not well define the terminal phase. Results

A short description of series [1]: Pharmacokinetic study of 157 (iv, po) in SD rats: 157 and endothal in plasma, liver, brain. It is filed as in vivo. The method, then:
The blood, liver and brain tissue samples were collected at predetermined times from rats. […] Compound were diluted shortly before use in 4% sodium bicarbonate for sterile injection (this is the standard pediatric solution of NaHCO3 with a pH of about 8.5).
Compound 153 was freshly prepared by diluting the drugs shortly before use in 4% sodium bicarbonate for sterile injection (this is the standard pediatric solution of NaHCO3 with a pH of about 8.5). The final concentrations of 153 solutions were 0.25 mg/mL. The 153 solutions were administered via iv or po route at dose volume of 5 ml/kg according to the latest body weight. Compound 157 was freshly prepared by diluting the drugs shortly before use in 4% sodium bicarbonate for sterile injection (this is the standard pediatric solution of NaHCO3 with a pH of about 8.5). […] The 157 solutions were administered via iv or po route at dose volume of 5 ml/kg according to the latest body weight.
Twelve (12) female SD rats per group were dosed by iv with 153 or 157. The rats were fasted overnight prior to dosing, with free access to water. Foods were withheld for 2 hours post-dose. Blood, liver and brain tissue samples in two animals each group were collected at each time point, within 10% of the scheduled time for each time point. Two extra animals were used for analytic method development.
Blood (>0.3 mL) were collected via aorta abdominalis in anaesthetic animals into tubes containing heparin at 15 min, 1, 2, 6, 10 and 24 hours after iv administration. Liver and brain tissues were collected immediately after animal death. The liver and brain tissues were excised and rinsed with cold saline to avoid blood residual. Upon collection, each sample was placed on ice and the blood samples were subsequently centrifuged (4° C., 11000 rpm, 5 min) to separate plasma.
The obtained plasma, liver and brain tissue samples were stored at −70° C. until LC-MS/MS analysis.
Two (2) female SD rats per group were dosed by po with 153 or 157. The rats were fasted overnight prior to dosing, with free access to water. Foods were withheld for 2 hours post-dose. Blood samples (>0.3 mL) were collected via aorta abdominalis in anaesthetic animals into tubes containing heparin at 30 min, 1, 2, 6, 10 and 24 hours after po administration.
To each sample, 30 μL IS-D (for blank samples, 20 μL acetonitrile:water (1:1) was added) and 300 ul acetonitrile was added. The sample mixture was vortexed for approximately 3 min. After centrifugation at 10000 rpm for 5 min at 4° C., 100 μL of the upper layer was transferred to a new tube and added 200 μL 0.4% formic acid in water (pH6.0). The mixture was vortexed for approximately 3 min before injected onto the LC/MS/MS system for analysis.
On the day of the assay, the frozen liver and brain samples were thawed unassisted at room temperature. An about 200 mg weighed sample of each thawed tissue was placed into a plastic tube with water (0.6 mL) to facilitate homogenization. Tissue processing was conducted using a homogenizer for approximately 1 min, […] homogenate was transferred into a fresh Eppendorf tube. To each tube, 50 μL IS-D was added and mixed. Then 500 ul acetonitrile was added and the sample mixture was vortexed for approximately 3 min. After centrifugation at 10000 rpm for 5 min at 4° C., 100 μL of the upper layer was transferred to a new tube and evaporate the supernatant to dryness at 35° C. Reconstitute the residue with 200 μL of 0.4% formic acid in water (pH 6.0), and vortex for 3 min, submit for LC-MS/MS analysis.
Frozen unknown plasma samples were completely thawed at room temperature and vortexed thoroughly. With a pipette, 50 μL of plasma was transferred into a 2.0 mL Eppendorf tube. 50 μL of 0.1N HCl and 800 μL ethyl acetate were added into each sample. The sample mixture was vortexed for approximately 3 min.

A short description of series [2]: Whole blood stability (half-life) and metabolite formation. It is filed as in vitro ADME, rat, dog, monkey and human. The following applies: for metabolism in whole blood metabolite study: rat, dog. The method, then:
(§1) The stability (whole blood, liver S9, SGF, SIF, and PBS buffer) and MDCK-MDR1 monolayer permeability of LB100, LB-100 Carbonate and LB-100 POM were evaluated.
(§2) Samples were analyzed by LC-MS/MS using a SCIEX QTrap 5500 mass spectrometer coupled with an Agilent 1290 HPLC Infinity series, a CTC PAL chilled autosampler, all controlled by Analyst software. After separation on a C18 reverse phase HPLC column (Acquity UPLC HSS T3, 1.8, 2.1×50 mm) using an acetonitrile-water gradient system, peaks were analyzed by mass spectrometry (MS) using […] ionization in MRM mode.
Whole Blood Stability: Experimental Conditions Experimental Procedure: The stock solution was first diluted in acetonitrile at a concentration that is 100× of the desired final concentration. It was incubated in duplicate with whole blood at 37° C. At indicated times, an aliquot was removed from each experimental and control reaction and mixed with three volumes of ice-cold Stop Solution (methanol containing propranolol as internal standard). Stopped reactions were incubated at least ten minutes at −20° C. The samples were centrifuged to remove precipitated protein, and the supernatants were analyzed by LC-MS/MS to quantitate the remaining parent and the formation of metabolites.
Data were converted to % remaining by dividing by the time zero concentration value. Data were fit to a first-order decay model to determine half-life.

Series [3] can be described thus: Liver S9 stability and metabolite formation. It is filed as in vitro ADME, rat, dog, monkey and human. The following applies: presence and absence of NADPH, cross species. As for the experimental part: as §1, §2
Experimental Procedure: Test agent is incubated in duplicate with liver S9 at 37° C. The reaction contains liver S9 protein in 100 mM potassium phosphate, 2 mM NADPH, 3 mM MgCl2, pH 7.4. A control is run for each test agent omitting NADPH to detect NADPH-free degradation. At indicated times, an aliquot is removed from each experimental and control reaction and mixed with an equal volume of ice-cold Stop Solution (methanol, containing internal standard propranolol). Stopped reactions are incubated for 10 minutes at −20° C. Samples are centrifuged to remove precipitated protein, and supernatants are analyzed by LC/MS/MS to quantitate remaining parent and the formation of metabolites. Data are reported as % remaining by dividing by the time zero concentration value.

Where [4] appears, read: iv 1.5 mg/kg, 0.25 hr, individual rats, 1.5 mg/kg.
Where [5] appears, read: iv 1.5 mg/kg, 1 hr, individual rats, 1.5 mg/kg.
Where [6] appears, read: iv 1.5 mg/kg, 2 hr, individual rats, 1.5 mg/kg.
The mark [7] stands for this setting: iv administration of 157 at 1.5 mg/kg.
[8] abbreviates: plasma, 157 1.5 mg/kg IV, individual rats, 1.5 mg/kg.
The mark [9] stands for this setting: plasma, 157 1.5 mg/kg PO, individual rats, 1.5 mg/kg.

On to `CN1CCN(C(=O)C2C(C(=O)OCC(Cl)(Cl)Cl)[C@H]3CC[C@@H]2O3)CC1` (some centres unmarked) [Compound 113], for which, in “in vivo” (male, SD, po, 2 hr), the “plasma concentration of 113” value stood at 2.15 ng/mL. The compound also displayed a concentration at 2 hr in “in vivo” (male, SD, po, plasma concentration of 113) of 2.15 ng/mL. In “in vivo” (male, Sprague-Dawley, iv), the AUC(0-t) came out at 155 ng·h/mL and the Tmax was found to be 15 min. In addition, in “in vivo” (male, Sprague-Dawley, po), the AUC(0-t) is 15.7 ng·h/mL, the “AUC(0-t) of 113” value came out at 15.7 ng·h/mL, the concentration peaked (Cmax) at 17.7 ng/mL and the “F of 113” value was found to be 10.1%. The Tmax in the series “in vivo” (male, Sprague-Dawley, po) came to 15 min. Besides, the clinical symptoms result in “in vivo” is on record as “No abnormal clinical symptom was observed”. Further, in “in vivo” (iv), the “AUC(0-last) in brain” value worked out at 47.5 ng·h/g and the “AUC(0-last) in liver” value was found to be 28.1 ng·h/g.

`CCCCCCCOC(=O)C1C2CCC(O2)C1C(=O)N1CCN(C)CC1` (centres unmarked) [Compound 157]: in series [1] (157 administered to rats), the “metabolism to endothal in vivo” value is recorded as “metablozied to endothal in vivo; also recorded: converted to endothal in the plasma”. In addition, the oral availability entry in series [1] (157 at 1.5 mg/kg po to SD rats) is given as “poorly orally available”. The 157 plasma concentration in series [1] (PO 1.5 mg/kg, 0.5 hr, individual rats, 1.5 mg/kg) was 5.92 ng/mL and 6.35 ng/mL; in series [1] (PO 1.5 mg/kg, 0.5 hr, mean), 6.14 ng/mL; in series [1] (PO 1.5 mg/kg, 1 hr, individual rats, 1.5 mg/kg) it was 1.48 ng/mL and 1.26 ng/mL; in series [1] (PO 1.5 mg/kg, 1 hr, mean), 1.37 ng/mL; in series [1] (PO 1.5 mg/kg, 2 hr, individual rats, 1.5 mg/kg), 0.303 ng/mL and 0.194 ng/mL; in series [1] (PO 1.5 mg/kg, 2 hr, mean), 0.249 ng/mL. Also, the 157 plasma concentration in series [1] (setting [4]) is 116 ng/mL and 114 ng/mL; in series [1] (iv 1.5 mg/kg, 0.25 hr, mean), 115 ng/mL; in series [1] (setting [5]), 2.67 ng/mL and 3.57 ng/mL; in series [1] (iv 1.5 mg/kg, 1 hr, mean), 3.12 ng/mL; in series [1] (setting [6]), 0.491 ng/mL and 0.556 ng/mL; in series [1] (iv 1.5 mg/kg, 2 hr, mean), 0.524 ng/mL. Further, the bioavailability in series [1] (female, Sprague-Dawley, rat, in vivo, 157 1.5 mg/kg PO vs IV, mean, read-out: F (bioavailability, BA)) stood at 6.78%. Moreover, the 157 brain concentration was 60.0 ng/g in series [1] (iv 1.5 mg/kg, 0.25 hr, individual rats); 60.0 ng/g in series [1] (iv 1.5 mg/kg, 0.25 hr, mean); 1.99 ng/g and 2.80 ng/g in series [1] (setting [5]); 2.40 ng/g in series [1] (iv 1.5 mg/kg, 1 hr, mean); “BLQ” in series [1] (iv 1.5 mg/kg, 2 hr, individual rats). Also, the 157 liver concentration in series [1] (setting [4]) was 337 ng/g and 257 ng/g; in series [1] (iv 1.5 mg/kg, 0.25 hr, mean), 297 ng/g; in series [1] (setting [5]), 29.4 ng/g and 17.6 ng/g; in series [1] (iv 1.5 mg/kg, 1 hr, mean) it was 23.5 ng/g; in series [1] (setting [6]), 6.40 ng/g and 9.72 ng/g; in series [1] (iv 1.5 mg/kg, 2 hr, mean), 8.06 ng/g. The 157 liver concentration entry in series [1] (iv 1.5 mg/kg, 10 hr, individual rats) is “BLQ”. This compound also gave an AUClast in brain in series [1] (setting [7]) of 24.6 ng·h/g. The compound also showed an AUClast in liver in series [1] (setting [7]) of 152 ng·h/g. For the same compound, the AUC came to 47.3 ng·h/mL in series [1] (setting [8]); 47.2 ng·h/mL in series [1] (plasma, 157 1.5 mg/kg IV, mean); 3 ng·h/mL in series [1] (setting [9]). Besides, the “AUC0-∞” value came out at 47.3 ng·h/mL in series [1] (setting [8]); 47.2 ng·h/mL in series [1] (plasma, 157 1.5 mg/kg IV, mean); 3 ng·h/mL in series [1] (setting [9]). The Cmax in series [1] (setting [8]) was 116 ng/mL and 114 ng/mL.

Consider `CCOC(=O)OCOC(=O)[C@H]1[C@@H](C(=O)N2CCN(C)CC2)[C@@H]2CC[C@H]1O2` [LB-100 Carbonate], for which, in series [2] (blood), the “metabolite formation in whole blood half-life study” value is “formation of endothall and LB-100 were observed”. The “metabolism in whole blood metabolite study” value in series [2] (monkey, human) was “metabolized to endothall and LB-100”.

For `CN1CCN(C(=O)C2C3CCC(O3)C2C(=O)OCOC(=O)C(C)(C)C)CC1` (centres unmarked) [LB-100 POM Ester], in series [3], the “metabolites observed in liver S9 stability study” value was “metabolites LB-100 and endothall were observed”. Besides, in series [2] (cross species), the “metabolite formation in whole blood half-life study” value was “formation of endothall and LB-100 were observed”. Also, the “metabolism in whole blood metabolite study” value in series [2] (monkey and human) is “metabolized to endothall and LB-100”.

As usually defined, the AUC(0-t) is the area under the concentration-time curve up to a stated or last time point. The term Tmax denotes the time at which the peak concentration occurs. What is called Cmax is the highest concentration seen after dosing. Broadly, the bioavailability is the share of a dose that reaches the circulation, judged against a reference dose that is usually intravenous. By AUC is commonly meant the area under the concentration-time curve, a measure of exposure.

Values taken from US11236102B2, “Oxabicycloheptane prodrugs” (Lixte Biotechnology, Inc., priority 2015, dated 2022).
